In paper PMC2932742, “Identifying Regulators for EAG1 Channels with a Novel Electrophysiology and Tryptophan Fluorescence Based Screen” (PLoS ONE, 2010):

Biological target: T1, EAG1 (mEAG1) (Mus musculus, UniProt Q60603)
T1 construct: gene Kcnh1
T1 sequence (Q60603 505-702): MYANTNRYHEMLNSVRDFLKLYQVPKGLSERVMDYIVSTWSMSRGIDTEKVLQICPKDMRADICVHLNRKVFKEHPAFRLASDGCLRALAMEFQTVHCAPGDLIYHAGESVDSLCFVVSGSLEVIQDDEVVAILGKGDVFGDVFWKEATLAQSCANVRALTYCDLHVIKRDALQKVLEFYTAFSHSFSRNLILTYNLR
Assay: tryptophan fluorescence titration of purified C-terminal region; gating effect also seen in inside-out patches
Format: binding

## O=c1c(O)c(-c2cc(O)c(O)c(O)c2)oc2cc(O)cc(O)c12 [myricetin]
  Kd: > 100 µM
